Here are results for 30 compounds from patent US7625896B2, “Pyridylsulfonamide derivatives” (Hoffman-La Roche Inc., priority 2005, dated 2009).

As usually defined, the IC50 is the concentration that gives 50% inhibition. Read a low IC50 as greater potency in that assay.

In this experiment the test system is HCT 116 cells. Nature of the experiment: Viability assay in HCT 116 cells (CellTiter-Glo Luminescent Cell Viability Assay). Format: cell-based. The conditions noted are these: HCT 116 human colon carcinoma cells, 5 days (120 h) incubation, 10 concentrations 30 μM to 0.0015 μM, ATP luminescence. The method, then: Viability Assay in HCT 116 Cells
A viability assay was performed using the CellTiter-Glo® Luminescent Cell Viability Assay (see Promega Corporation's Technical Bulletin No. 288, pp. 1-11 [revised February 2004] which is hereby incorporated by reference in its entirety). This assay is a homogeneous method of determining the number of viable cells in culture based on quantitation of the ATP present, an indicator of metabolically active cells. The assay is designed for use with multiwell formats, making it ideal for automated high-throughput screening (HTS), cell proliferation and cytotoxicity assays. The homogeneous assay procedure involves adding a single reagent (containing luciferase, luciferan substrate, and buffer) directly to cells cultured in serum-supplemented medium. Cell washing, removal of medium and multiple pipetting steps are not required. The system detects as few as 15 cells/well in a 384-well format in 10 minutes after adding reagent and mixing.
The homogeneous “add-mix-measure” format results in cell lysis and generation of a luminescent signal proportional to the amount of ATP present. The amount of ATP is directly proportional to the number of cells present in culture. The above-referenced assay generates a “glow-type” luminescent signal, produced by the luciferase reaction, which has a half-life generally greater than five hours, depending on cell type and medium used. The extended half-life eliminates the need to use reagent injectors and provides flexibility for continuous or batch mode processing of multiple plates. The unique homogeneous format avoids errors that may be introduced by other ATP measurement methods that require multiple steps.
HCT 116 cells (human colon carcinoma, ATCC-No. CCl-247) were cultivated in RPMI 1640 medium with GlutaMAX™ I (cell culture media that contains L-Alanyl-L-Glutamine [a stabilized form/source of L-Glutamine] from Invitrogen, Cat-No. 61870-010), 5% Fetal Calf Serum (FCS, Sigma Cat-No. F4135 (FBS)); 100 Units/ml penicillin/100 μg/ml streptomycin (=Pen/Strep from Invitrogen Cat. No. 15140). For the assay the cells were seeded in 384 well plates, 1000 cells per well, in the same medium. The next day the test compounds were added in various concentrations ranging from 30 μM to 0.0015 μM (10 concentrations, 1:3 diluted). After 5 days the viability assay was performed according to the instructions of the manufacturer. In brief: the cell-plate was equilibrated to room temperature for approximately 30 minutes and then the reagent (containing luciferase, luciferan substrate, and buffer) was added. The contents were carefully mixed for 15 minutes to induce cell lysis. After 45 minutes the luminescent signal was measured in Victor 2, (scanning multiwell spectrophotometer, Wallac).
1st. Day: • Medium: RPMI 1640 with GlutaMAX™ I (Invitrogen, Cat-No. 61870), 5% FCS (Sigma Cat.-No. F4135), Pen/Strep (Invitrogen, Cat No. 15140). • HCT116 (ATCC-No. CCl-247): 1000 cells in 60 μl per well of 384 well plate (Greiner 781098, μClear-plate white) • After seeding incubate plates 24 h at 37° C., 5% CO2
2nd. Day: Induction (Treatment with Compounds, 10 Concentrations):
In order to achieve a final concentration of 30 μM as highest concentration 3.5 μl of 10 mM compound stock solution were added directly to 163 μl media. Then step e) of the dilution procedure described below, was followed.
Background: In ATP-based viability assays light output follows the ATP content of the culture.

Where a name gives a salt, the structure may show the parent alone.

`O=C(NS(=O)(=O)c1ccc(N2CCOCC2)nc1)c1ccc(Cl)cc1Cl` [Example 1-1, 6-morpholin-4-yl-pyridine-3-sulfonic acid 2,4-dichloro-benzoylamide; sodium salt]: the IC50 was 1 to 16 µM. In turn, `Cc1cc(Cl)ccc1C(=O)NS(=O)(=O)c1ccc(N2CCOCC2)nc1` [Example 1-2, 6-Morpholin-4-yl-pyridine-3-sulfonic acid 4-chloro-2-methyl-benzoylamide; sodium salt] showed an IC50 of 5.32 µM.

Compound `Cc1cc(Br)ccc1C(=O)NS(=O)(=O)c1ccc(N2CCOCC2)nc1` [Example 1-3, 6-Morpholin-4-yl-pyridine-3-sulfonic acid 4-bromo-2-methyl-benzoylamide; sodium salt] yielded an IC50 of 1 to 16 µM.

Regarding `Cc1ccc(C(=O)NS(=O)(=O)c2ccc(N3CCOCC3)nc2)c(Br)c1` [Example 1-4, 6-Morpholin-4-yl-pyridine-3-sulfonic acid 2-bromo-4-methyl-benzoylamide; sodium salt], the IC50 was 1 to 16 µM. Turning to `O=C(NS(=O)(=O)c1cnc(Cl)c(Br)c1)c1ccc(Br)cc1Cl` [Example 1-7, 5-Bromo-6-chloro-pyridine-3-sulfonic acid 4-bromo-2-chloro-benzoylamide; sodium salt], it took 8.48 µM to reach half-maximal inhibition (IC50).

The compound `O=C(NS(=O)(=O)c1cnc(Cl)c(Br)c1)c1ccc(Cl)cc1Br` [Example 1-8, 5-Bromo-6-chloro-pyridine-3-sulfonic acid 2-bromo-4-chloro-benzoylamide; sodium salt] came in with an IC50 of 1 to 16 µM. In turn, `O=C(NS(=O)(=O)c1ccc(N2CCOCC2)nc1)c1ccc(F)cc1Cl` [Example 1-10, 6-Morpholin-4-yl-pyridine-3-sulfonic acid 2-chloro-4-fluoro-benzoylamide; sodium salt] showed an IC50 of 1 to 16 µM. As to `O=C(NS(=O)(=O)c1cnc(Cl)c(Br)c1)c1ccc(Cl)cc1Cl` [Example 1-13, 5-Bromo-6-chloro-pyridine-3-sulfonic acid 2,4-dichloro-benzoylamide; sodium salt], the IC50 lay in the range of 1 to 16 µM. The figure for `O=C(NS(=O)(=O)c1ccc(Oc2ccccc2)nc1)c1ccc(C(F)(F)F)cc1F` [Example 1-15, 6-Phenoxy-pyridine-3-sulfonic acid 2-fluoro-4-trifluoromethyl-benzoylamide; sodium salt] is 1 to 16 µM.

For the compound `O=C(NS(=O)(=O)c1cnc(Cl)c(Br)c1)c1ccc(C(F)(F)F)cc1C(F)(F)F` [Example 1-18, 5-Bromo-6-chloro-pyridine-3-sulfonic acid 2,4-bis-trifluoromethyl-benzoylamide; sodium salt], the IC50 was 1 to 16 µM. Turning to `O=C(NS(=O)(=O)c1ccc(Oc2ccccc2)nc1)c1ccc(Cl)cc1F` [Example 1-20, 6-Phenoxy-pyridine-3-sulfonic acid 4-chloro-2-fluoro-benzoylamide; sodium salt], the IC50 was 1 to 16 µM. As to `O=C(NS(=O)(=O)c1ccc(Oc2ccccc2)nc1)c1ccc(F)cc1C(F)(F)F` [Example 1-21, 6-Phenoxy-pyridine-3-sulfonic acid 4-fluoro-2-trifluoromethyl-benzoylamide; sodium salt], the IC50 was 1 to 16 µM. Under `O=C(NS(=O)(=O)c1cccnc1)c1ccc(Cl)cc1Cl` [Example 1-24, Pyridine-3-sulfonic acid 2,4-dichloro-benzoylamide; sodium salt] stands 3.17 µM; under `O=C(NS(=O)(=O)c1ccc(Oc2ccccc2)nc1)c1ccc(Br)cc1Cl` [Example 1-28, 6-Phenoxy-pyridine-3-sulfonic acid 4-bromo-2-chloro-benzoylamide; sodium salt], 1 to 16 µM; under `O=C(NS(=O)(=O)c1ccc(N2CCOCC2)nc1)c1ccc(Cl)cc1Br` [Example 1-29, 6-Morpholin-4-yl-pyridine-3-sulfonic acid 2-bromo-4-chloro-benzoylamide; sodium salt], 1 to 16 µM. `O=C(NS(=O)(=O)c1ccc(Oc2ccccc2)nc1)c1ccc(Cl)cc1Br` [Example 1-33, 6-Phenoxy-pyridine-3-sulfonic acid 2-bromo-4-chloro-benzoylamide; sodium salt] showed an IC50 of 1 to 16 µM. The compound `O=C(NS(=O)(=O)c1cccnc1)c1ccc(C(F)(F)F)cc1C(F)(F)F` [Example 1-38, Pyridine-3-sulfonic acid 2,4-bis-trifluoromethyl-benzoylamide; sodium salt] came in with an IC50 of 1 to 16 µM. The figure for `Cc1ccc(C(=O)NS(=O)(=O)c2ccc(Oc3ccccc3)nc2)c(Br)c1` [Example 1-40, 6-Phenoxy-pyridine-3-sulfonic acid 2-bromo-4-methyl-benzoylamide; sodium salt] is 1 to 16 µM; for `COc1cc(Cl)ccc1C(=O)NS(=O)(=O)c1ccc(N2CCC(OC)CC2)nc1` [Example 1-45, 4-Methoxy-3,4,5,6-tetrahydro-2H-[1,2′]bipyridinyl-5′-sulfonic acid 4-chloro-2-methoxy-benzoylamide; sodium salt] it is 1 to 16 µM; for `COc1cc(Cl)ccc1C(=O)NS(=O)(=O)c1ccc(N2CCSCC2)nc1` [Example 1-47, 6-Thiomorpholin-4-yl-pyridine-3-sulfonic acid 4-chloro-2-methoxy-benzoylamide] it is 1 to 16 µM. Turning to `O=C(NS(=O)(=O)c1ccc(N2CCCCCC2)nc1)c1ccc(Cl)cc1C(F)(F)F` [Example 1-49, 6-Azepan-1-yl-pyridine-3-sulfonic acid 4-chloro-2-trifluoromethyl-benzoylamide], the IC50 was in the range of 1 to 16 µM. The figure for `CC1CCCN(c2ccc(S(=O)(=O)NC(=O)c3ccc(Cl)cc3C(F)(F)F)cn2)C1` (stereo not drawn) [Example 1-51, 3-Methyl-3,4,5,6-tetrahydro-2H-[1,2′]bipyridinyl-5′-sulfonic acid 4-chloro-2-trifluoromethyl-benzoylamide; ammonium salt] is 1 to 16 µM; for `CCCN(CCC)c1ccc(S(=O)(=O)NC(=O)c2ccc(Cl)cc2C(F)(F)F)cn1` [Example 1-54, 6-Dipropylamino-pyridine-3-sulfonic acid 4-chloro-2-trifluoromethyl-benzoylamide] it is 1 to 16 µM. `O=C(NS(=O)(=O)c1ccc(N2CCSCC2)nc1)c1ccc(Cl)cc1C(F)(F)F` [Example 1-56, 6-Thiomorpholin-4-yl-pyridine-3-sulfonic acid 4-chloro-2-trifluoromethyl-benzoylamide; ammonium salt] gave an IC50 of 1 to 16 µM. The compound `CCCCN(CC)c1ccc(S(=O)(=O)NC(=O)c2ccc(Cl)cc2C(F)(F)F)cn1` [Example 1-59, 6-(Butyl-ethyl-amino)-pyridine-3-sulfonic acid 4-chloro-2-trifluoromethyl-benzoylamide; ammonium salt] showed an IC50 of 1 to 16 µM. The compound `CCCN(C)c1ccc(S(=O)(=O)NC(=O)c2ccc(F)cc2Cl)cn1` [Example 1-63, 6-(Methyl-propyl-amino)-pyridine-3-sulfonic acid 2-chloro-4-fluoro-benzoylamide] gave an IC50 of 1 to 16 µM. Consider `O=C(NS(=O)(=O)c1ccc(N2CCSCC2)nc1)c1ccc(F)cc1Cl` [Example 1-68, 6-Thiomorpholin-4-yl-pyridine-3-sulfonic acid 2-chloro-4-fluoro-benzoylamide], for which the half-maximal inhibitory concentration (IC50) lay within 1 to 16 µM.

For the compound `O=C(NS(=O)(=O)c1ccc(N2CCCCCC2)nc1)c1ccc(Cl)cc1Cl` [Example 1-69, 6-Azepan-1-yl-pyridine-3-sulfonic acid 2,4-dichloro-benzoylamide], the IC50 lay in the range of 1 to 16 µM. Under `O=C(NS(=O)(=O)c1ccc(N2CCSCC2)nc1)c1ccc(Cl)cc1Cl` [Example 1-71, 6-Thiomorpholin-4-yl-pyridine-3-sulfonic acid 2,4-dichloro-benzoylamide] stands 1 to 16 µM; under `C[C@@H]1CN(c2ccc(S(=O)(=O)NC(=O)c3ccc(Cl)cc3C(F)(F)F)cn2)C[C@H](C)O1` [Example 1-72, 6-((2R,6S)-2,6-Dimethyl-morpholin-4-yl)-pyridine-3-sulfonic acid 4-chloro-2-trifluoromethyl-benzoylamide], 1 to 16 µM.
